Starred links: 1 amine or outer side, 2 acyl side, 3 side chain; linkers in the order of their positions; H or OH if unused. Positions of bridges follow the written chain, without caps; N, C: chain ends. Non-standard residues stand in square brackets, D forms with d. Residues, ends and D or L forms follow the SMILES beside them. *: point of attachment. hPhe(3-Cl-4-CF3) = N[C@@H](CCc1ccc(C(F)(F)F)c(Cl)c1)C(=O)O; NMePhe(4-CF3) = CN[C@@H](Cc1ccc(C(F)(F)F)cc1)C(=O)O; NMePhe(3-CN) = CN[C@@H](Cc1cccc(C#N)c1)C(=O)O; NMePhe(4-Cl) = CN[C@@H](Cc1ccc(Cl)cc1)C(=O)O; NMePhe(4-Me) = CN[C@@H](Cc1ccc(C)cc1)C(=O)O; NMePhe(2-Cl) = CN[C@@H](Cc1ccccc1Cl)C(=O)O; NMePhe(2-Me) = CN[C@@H](Cc1ccccc1C)C(=O)O; NMedβ3hAla = C[C@H](CC(=O)[*:2])N(C)[*:1]; NMeAla(cPent) = CN[C@@H](CC1CCCC1)C(=O)O; NMeGly(cPent) = CN[C@H](C(=O)O)C1CCCC1; Phe(2-Cl) = N[C@@H](Cc1ccccc1Cl)C(=O)O; Phe(3-I) = N[C@@H](Cc1cccc(I)c1)C(=O)O; Phe(4-F) = N[C@@H](Cc1ccc(F)cc1)C(=O)O; NMeAla(cPr) = CN[C@@H](CC1CC1)C(=O)O; NMeCha = CN[C@@H](CC1CCCCC1)C(=O)O; Hyp = O=C(O)[C@@H]1C[C@@H](O)CN1; NMeChg = CN[C@H](C(=O)O)C1CCCCC1; NMeI = CC[C@H](C)[C@H](NC)C(=O)O; N(CH2CH2)2CF2 = FC1(F)CCN(*)CC1; NMeD = CN[C@@H](CC(=O)O)C(=O)O; NMeL = CN[C@@H](CC(C)C)C(=O)O; αMeL = CC(C)C[C@](C)(N)C(=O)O; NMeV = CN[C@H](C(=O)O)C(C)C; d(β3hA) = C[C@@H](N)CC(=O)O; Azetidin(1-yl) = C1CN(*)C1; NMeA = CN[C@@H](C)C(=O)O; NMeAib = CNC(C)(C)C(=O)O; Nle = CCCC[C@H](N)C(=O)O; Piperidide = C1CCN(*)CC1; Pra = C#CC[C@H](N)C(=O)O; Pyrrolidide = C1CCN(*)C1; Ac5c = NC1(C(=O)O)CCCC1; Aze = O=C(O)[C@@H]1CCN1; Ac4c = NC1(C(=O)O)CCC1; Sar = CNCC(=O)O
target: T1, Kras and SOS1 (biotin-tagged human Kras loaded with GDP, His-tagged human SOS1) (Homo sapiens, UniProt P01116, G12D); assay: Protein-protein interaction inhibition between Kras and SOS1 (KrasGl2D-SOS PPI) using AlphaScreen; type: binding; settings: AlphaScreen; biotin-tagged human Kras loaded with GDP, His-tagged human SOS1; read-out: KRAS G12D-SOS PPI IC50
T1 construct: made in house; host or cells: E. coli (stated for Kras only)
T1 sequence (P01116 1-188 isoform P01116-2 G12D): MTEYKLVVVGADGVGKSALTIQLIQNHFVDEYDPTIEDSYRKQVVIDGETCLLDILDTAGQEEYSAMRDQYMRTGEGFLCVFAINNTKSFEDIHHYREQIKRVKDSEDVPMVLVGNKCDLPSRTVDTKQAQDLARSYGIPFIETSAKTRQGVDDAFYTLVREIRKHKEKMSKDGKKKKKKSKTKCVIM
In short: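 Energy transfer from nickel-chelate donor beads bound to His-SOS1 to streptavidin acceptor beads bound to biotin-Kras, expressed in E. coli and loaded with GDP after purification, was monitored. Donors were excited at 680 nm; singlet oxygen reaching acceptors gave emission read at 520-620 nm.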

SMILES	IC50
CCCC[C@@H]1NC(=O)[C@H](CCc2ccc(C(F)(F)F)c(Cl)c2)NC(=O)CN(C)C(=O)[C@H](CC2CCCC2)N(C)C(=O)[C@@H]2CCN2C(=O)[C@H](C)N(C)C(=O)[C@H]([C@@H](C)CC)NC(=O)[C@H](CC(C)C)N(C)C(=O)C[C@@H](C(=O)N2CCCCC2)N(C)C(=O)[C@H](CC(C)C)NC(=O)C(C)(C)N(C)C1=O [Compound 691] ([NMeL]I[NMeA][Aze][NMeAla(cPent)][Sar][hPhe(3-Cl-4-CF3)][Nle][NMeAib]L[NMeD]-Piperidide; lactam N-11)	7.1 nM
CCCC[C@@H]1NC(=O)[C@H](Cc2cccc(I)c2)NC(=O)CN(C)C(=O)[C@H](Cc2ccc(Cl)cc2)N(C)C(=O)CN(C)C(=O)CN(C)C(=O)[C@H]([C@@H](C)CC)NC(=O)[C@H](CC(C)C)N(C)C(=O)C[C@@H](C(=O)N2CCCCC2)N(C)C(=O)[C@H](CC(C)C)NC(=O)[C@H](Cc2ccccc2C)N(C)C1=O [Compound 696] ([NMeL]I[Sar][Sar][NMePhe(4-Cl)][Sar][Phe(3-I)][Nle][NMePhe(2-Me)]L[NMeD]-Piperidide; lactam N-11)	40 nM
CC[C@H](C)[C@@H]1NC(=O)[C@H](C)N(C)C(=O)C[C@@H](C)NC(=O)[C@H](C(C)C)N(C)C(=O)C2(CCCC2)NC(=O)[C@@H]2CCCN2C(=O)[C@H](CCc2ccc(C(F)(F)F)c(Cl)c2)NC(=O)CN(C)C(=O)[C@H](CC2CCCCC2)N(C)C(=O)CN(C)C(=O)CN(C)C1=O [Compound 697] (cyclo([Ac5c][NMeV][d(β3hA)][NMeA]I[Sar][Sar][NMeCha][Sar][hPhe(3-Cl-4-CF3)]P))	12 nM
CCO[C@@H]1C[C@H]2C(=O)NC3(CCC3)C(=O)N(C)[C@@H](C3CCCCC3)C(=O)N(C)[C@H](C)CC(=O)N(C)[C@@H](CC(C)C)C(=O)N[C@@H]([C@@H](C)CC)C(=O)N(C)[C@@H](C)C(=O)N3CC[C@H]3C(=O)N(C)[C@@H](Cc3ccc(C(F)(F)F)cc3)C(=O)N(C)CC(=O)N[C@@H](CCc3ccc(C(F)(F)F)c(Cl)c3)C(=O)N2C1 [Compound 698] (cyclo([Ac4c][NMeChg][NMedβ3hAla][NMeL]I[NMeA][Aze][NMePhe(4-CF3)][Sar][hPhe(3-Cl-4-CF3)][Hyp](Et)))	23 nM
CC[C@H](C)[C@@H]1NC(=O)[C@H](C)N(C)C(=O)C[C@@H](C(=O)N2CCCC2)N(C)C(=O)[C@H](C(C)C)N(C)C(=O)[C@@H](C)NC(=O)[C@H](Cc2ccccc2Cl)N(C)C(=O)[C@H](CCc2ccc(C(F)(F)F)c(Cl)c2)NC(=O)CN(C)C(=O)[C@H](CC2CCCCC2)N(C)C(=O)CN(C)C(=O)CN(C)C1=O [Compound 702] ([NMeA]I[Sar][Sar][NMeCha][Sar][hPhe(3-Cl-4-CF3)][NMePhe(2-Cl)][dA][NMeV][NMeD]-Pyrrolidide; lactam N-11)	130 nM
CC[C@H](C)[C@@H]1NC(=O)[C@H](CC(C)C)N(C)C(=O)C[C@@H](C(=O)N2CCCCC2)N(C)C(=O)[C@H](CC(C)C)NC(=O)C(C)(C)N(C)C(=O)[C@H](Cc2ccc(OC)cc2)NC(=O)[C@H](Cc2cccc(I)c2)NC(=O)CN(C)C(=O)[C@H](Cc2ccc(C)cc2)N(C)C(=O)[C@@H]2CCN2C(=O)[C@H](C)N(C)C1=O [Compound 703] ([NMeL]I[NMeA][Aze][NMePhe(4-Me)][Sar][Phe(3-I)]Y(Me)[NMeAib]L[NMeD]-Piperidide; lactam N-11)	8.5 nM
CC[C@H](C)[C@@H]1NC(=O)[C@H](CC(C)C)N(C)C(=O)C[C@@H](C)NC(=O)[C@H](C(C)C)N(C)C(=O)[C@](C)(CC(C)C)NC(=O)[C@@H]2CCCN2C(=O)[C@H](CCc2ccc(C(F)(F)F)c(Cl)c2)NC(=O)CN(C)C(=O)[C@H](CC2CCCCC2)N(C)C(=O)CN(C)C(=O)CN(C)C1=O [Compound 705] (cyclo(I[Sar][Sar][NMeCha][Sar][hPhe(3-Cl-4-CF3)]P[αMeL][NMeV][d(β3hA)][NMeL]))	360 nM
CC[C@H](C)[C@@H]1NC(=O)[C@H](CC(C)C)N(C)C(=O)C[C@@H](C(=O)N2CCCCC2)N(C)C(=O)[C@H](CC(C)C)NC(=O)C(C)(C)N(C)C(=O)[C@H](Cc2ccccc2Cl)NC(=O)[C@H](Cc2cccc(I)c2)NC(=O)CN(C)C(=O)[C@H](Cc2ccc(C)cc2)N(C)C(=O)CN(C)C(=O)CN(C)C1=O [Compound 706] ([NMeL]I[Sar][Sar][NMePhe(4-Me)][Sar][Phe(3-I)][Phe(2-Cl)][NMeAib]L[NMeD]-Piperidide; lactam N-11)	66 nM
CC[C@H](C)[C@@H]1NC(=O)[C@H](CC(C)C)N(C)C(=O)C[C@@H](C)NC(=O)[C@H](CC2CC2)N(C)C(=O)C2(CCCC2)NC(=O)[C@@H]2CCCN2C(=O)[C@H](CCc2ccc(C(F)(F)F)c(Cl)c2)NC(=O)CN(C)C(=O)[C@H](CC2CCCCC2)N(C)C(=O)CN(C)C(=O)CN(C)C1=O [Compound 707] (cyclo([Ac5c][NMeAla(cPr)][d(β3hA)][NMeL]I[Sar][Sar][NMeCha][Sar][hPhe(3-Cl-4-CF3)]P))	14 nM
CC[C@H](C)[C@@H]1NC(=O)[C@H](CC(C)C)N(C)C(=O)C[C@@H](C(=O)N2CCCCC2)N(C)C(=O)[C@H](C(C)C)N(C)C(=O)C2(CCCC2)NC(=O)[C@@H]2CCCN2C(=O)[C@H](CCc2ccc(C(F)(F)F)c(Cl)c2)NC(=O)CN(C)C(=O)[C@H](Cc2cccc(C#N)c2)N(C)C(=O)CN(C)C(=O)CN(C)C1=O [Compound 710] ([NMeL]I[Sar][Sar][NMePhe(3-CN)][Sar][hPhe(3-Cl-4-CF3)]P[Ac5c][NMeV][NMeD]-Piperidide; lactam N-11)	4.4 nM
CC[C@H](C)[C@@H]1NC(=O)[C@H](CC(C)C)N(C)C(=O)C[C@@H](C(=O)N2CCCCC2)N(C)C(=O)[C@H](CC(C)C)NC(=O)C(C)(C)N(C)C(=O)[C@H](Cc2ccc(F)cc2)NC(=O)[C@H](Cc2cccc(I)c2)NC(=O)CN(C)C(=O)[C@H](CC2CCCCC2)N(C)C(=O)CN(C)C(=O)CN(C)C1=O [Compound 711] ([NMeL]I[Sar][Sar][NMeCha][Sar][Phe(3-I)][Phe(4-F)][NMeAib]L[NMeD]-Piperidide; lactam N-11)	35 nM
CC[C@H](C)[C@@H]1NC(=O)[C@H](CC(C)C)N(C)C(=O)C[C@@H](C(=O)N(C)C)N(C)C(=O)[C@H]([C@@H](C)CC)N(C)C(=O)[C@H](C)NC(=O)[C@H](C)N(C)C(=O)[C@H](CCc2ccc(C(F)(F)F)c(Cl)c2)NC(=O)CN(C)C(=O)[C@H](Cc2ccc(C)cc2)N(C)C(=O)[C@@H]2CCN2C(=O)[C@H](C)N(C)C1=O [Compound 715] ([NMeL]I[NMeA][Aze][NMePhe(4-Me)][Sar][hPhe(3-Cl-4-CF3)][NMeA]A[NMeI][NMeD]-NMe2; lactam N-11)	6.1 nM
C#CC[C@@H]1NC(=O)[C@H](CC(C)C)N(C)C(=O)C[C@@H](C(=O)N2CCCCC2)N(C)C(=O)[C@H](C2CCCCC2)N(C)C(=O)C2(CCCC2)NC(=O)[C@@H]2CCCN2C(=O)[C@H](CCc2ccc(C(F)(F)F)c(Cl)c2)NC(=O)CN(C)C(=O)[C@H](CC2CCCCC2)N(C)C(=O)CN(C)C(=O)CN(C)C1=O [Compound 716] ([NMeL][Pra][Sar][Sar][NMeCha][Sar][hPhe(3-Cl-4-CF3)]P[Ac5c][NMeChg][NMeD]-Piperidide; lactam N-11)	1.1 nM
CC[C@H](C)[C@@H]1NC(=O)[C@H](CC(C)C)N(C)C(=O)C[C@@H](C(=O)N2CCC2)N(C)C(=O)[C@H](C2CCCC2)N(C)C(=O)C2(CCCC2)NC(=O)[C@H](CC(=O)N2CCC(F)(F)CC2)N(C)C(=O)[C@H](CCc2ccc(C(F)(F)F)c(Cl)c2)NC(=O)CN(C)C(=O)[C@H](CC2CCCCC2)N(C)C(=O)[C@@H]2CCN2C(=O)[C@H](C)N(C)C1=O [Compound 719] ([NMeL]I[NMeA][Aze][NMeCha][Sar][hPhe(3-Cl-4-CF3)][NMeD](N(CH2CH2)2CF2)[Ac5c][NMeGly(cPent)][NMeD]-{Azetidin(1-yl)}; lactam N-11)	5.9 nM
